Here are results for 45 compounds from the Deep4Chem optical property database.

This data set can be described thus: solvent given as SMILES.

As to `CN1/C(=C/C=C(/C=C/c2sc3ccccc3[n+]2C)c2ccc(F)cc2)Sc2ccccc21`, the absorption maximum (in CCO) came out at 648 nm, the absorption maximum (in CO) is listed as 646 nm, the absorption maximum (in CS(C)=O) was 656 nm and the absorption maximum (in O) was found to be 641 nm.
Under “in ClCCl”, `COc1ccc(-c2c3cc4ccccc4cc3c(-c3ccc(OC)cc3)c3cc4sc(C)cc4cc23)cc1` displayed an absorption maximum of 550 nm.
Take `Cc1ccc2nc(-c3cccc4nc(C)[nH]c(=O)c34)[nH]c2c1`: the absorption maximum (in CN(C)C=O) was determined as 322 nm.
In the case of `CCC1=C(C)C2=Cc3cscc3B(O)N2C1=O`, the absorption maximum was 350 nm (in CC#N); 351 nm (in CCCCCC); 355 nm (in CO); 352 nm (in CS(C)=O); 355 nm (in ClC(Cl)Cl).
Take `CCCC1(CCC)c2ccccc2-c2ccc(-c3ccc(OC)cc3)cc21`: the absorption maximum (in C1CCCCC1) was found to be 315 nm.
Turning to `CCCCCCCCCCC1(CCCCCCCCCC)c2cc(N3C(=O)c4ccc5c6ccc7c8c(ccc(c9ccc(c4c59)C3=O)c86)C(=O)N(c3ccc4c(c3)C(CCCCCCCCCC)(CCCCCCCCCC)c3cc(N(c5ccccc5)c5ccccc5)ccc3-4)C7=O)ccc2-c2ccc(N(c3ccccc3)c3ccccc3)cc21`, the absorption maximum reads like this: (in Cc1ccccc1) 528 nm; (in ClCCl) 527 nm.
In turn, `[C-]#[N+]c1ccc(-c2ccc(N(C)C)cc2)cc1` had an absorption maximum (in C1CCCCC1) of 325 nm; an absorption maximum (in C1CCOC1) of 334 nm; an absorption maximum (in C1COCCO1) of 330 nm; an absorption maximum (in CC#N) of 333 nm; an absorption maximum (in CC(C)=O) of 327 nm; an absorption maximum (in CCCCCC) of 323 nm. The absorption maximum by setting is: (in CCOC(C)=O) 330 nm; (in CN(C)C=O) 339 nm; (in CO) 333 nm; (in CS(C)=O) 340 nm; (in Cc1ccccc1) 329 nm; (in ClC(Cl)Cl) 331 nm. For the same compound, the absorption maximum runs as follows: (in ClCCl) 336 nm; (in O) 315 nm; (in c1ccncc1) 340 nm.
For `Cc1cccc2cc3c(=O)n(C)c(=O)n(C)c3nc12`, the absorption maximum (in CC#N) was determined as 359 nm; the absorption maximum (in CC(C)O) is listed as 360 nm; the absorption maximum (in CCO) is 359 nm; the absorption maximum (in CO) was 361 nm; the absorption maximum (in ClC(Cl)Cl) is given as 362 nm; the absorption maximum (in ClCCl) was 362 nm.
Turning to `COc1ccc(N(c2ccccc2)c2ccc(OC)cc2)cc1`, the absorption maximum (in Cc1ccccc1) was determined as 300 nm.
For the compound `COc1ccc2c(c1)-c1ccccc1C2=O`, the absorption maximum reads like this: (in C1CCCCC1) 365 nm; (in CC#N) 379 nm; (in CCO) 387 nm.
As for `N#Cc1c(-n2nnc3c2CCC2C(CC3)[C@@H]2CO)n([C@H]2C[C@H](O)[C@@H](CO)O2)c2ncnc(N)c12` (stereo partly drawn), the absorption maximum (in CO) was 287 nm.
In the case of `CCN(CC)c1ccc2c(-c3ccccc3C(=O)O)c3c([o+]c2c1)/C(=C/Nc1ccccc1)CCC3`, the absorption maximum is 595 nm (in CCO), 608 nm (in ClC(Cl)Cl) and 607 nm (in ClCCl).
With `CCN1c2ccc(/C=N/Nc3ccccn3)cc2Sc2cc(-c3ccccc3)ccc21`, the absorption maximum (in C1CCOC1) is 379 nm, the absorption maximum (in CS(C)=O) amounted to 387 nm, the absorption maximum (in Cc1ccccc1) worked out at 382 nm and the absorption maximum (in ClCCl) came out at 384 nm.
In turn, `c1ccc(-n2c3ccccc3c3cc(-c4ccc5nc(-c6ccc(-n7c8ccccc8c8ccccc87)cc6)nn5c4)ccc32)cc1` came in with an absorption maximum (in C1CCOC1) of 340 nm.
`CC(C)[Si]1(C(C)C)c2ccccc2-c2ccc(N(C)C)cc21`: the absorption maximum was 323 nm (in C1CCCCC1); 321 nm (in CC#N); 319 nm (in CCO); 318 nm (in CCOCC); 324 nm (in CS(C)=O); 323 nm (in ClCCl). This compound had an absorption maximum (in c1ccccc1) of 323 nm.
As for `c1ccc(-c2nc3sc4ccccc4c3s2)cc1`, the absorption maximum (in CS(C)=O) came out at 348 nm.
Under “in ClCCl”, `COc1ccc(/C=C/C2=C3CCc4ccccc4C3=[O+][B-](F)(F)O2)cc1` displayed an absorption maximum of 467 nm.
With `O=C(O)CCCCCn1c2ccc(Br)cc2c(=O)c2cc(S(=O)(=O)O)ccc21`, the absorption maximum (in O) is recorded as 416 nm.
On to `Cc1cccn2c1cc1c3ccccc3nc(-c3ccc(Cl)o3)c12`, for which, where the note is “in CS(C)=O”, the absorption maximum is on record as 405 nm.
Take `COc1c(C)c2c(c(C)c1Cl)Oc1c(C=O)c(O)c(Cl)c(C)c1C(=O)O2`: the absorption maximum (in ClC(Cl)Cl) worked out at 342 nm.
`N#Cc1cc(N2c3ccccc3Sc3ccccc32)c(N2c3ccccc3Sc3ccccc32)cc1C#N` came in with an absorption maximum (in c1ccc2c(c1)c1ccccc1n2-c1ccc(-c2ccc(-n3c4ccccc4c4ccccc43)cc2)cc1) of 551 nm.
`Cc1cc(C)c(B(c2c(C)cc(C)cc2C)c2c(C)cc(-n3c4ccccc4c4cc(N(c5ccccc5)c5ccccc5)ccc43)cc2C)c(C)c1` yielded an absorption maximum (in Cc1ccccc1) of 375 nm.
`CC[N+]1(CC)CN2C(=N1)C(C(=O)O)=Cc1ccc(Cl)cc12`: the absorption maximum (in O) is 367 nm.
For `O=c1cc(COc2ccc(I)cc2)c2c(ccc3ccccc32)o1`, the absorption maximum was determined as 349 nm (in C1CCOC1); 348 nm (in C1COCCO1); 348 nm (in CC#N); 349 nm (in CC(C)=O); 350 nm (in CCCCO); 350 nm (in CCCO). The same compound returned an absorption maximum (in CCO) of 350 nm; an absorption maximum (in CCOC(C)=O) of 348 nm; an absorption maximum (in CN(C)C=O) of 350 nm; an absorption maximum (in CO) of 348 nm; an absorption maximum (in Cc1ccccc1) of 350 nm; an absorption maximum (in ClCCl) of 349 nm.
Where the note is “in C1CCOC1”, `Cc1ccc(-c2ccc(-c3ccc(-c4ccc(C)cc4)cc3/C(=C(/c3ccccc3)c3cc(-c4ccc(C)cc4)ccc3-c3ccc(-c4ccc(C)cc4)cc3)c3ccccc3)cc2)cc1` had an absorption maximum of 295 nm.
Take `C(=C\c1ccc(/C=C/c2ccc(N(c3ccccc3)c3ccccc3)cc2)c2nsnc12)/c1ccc(N(c2ccccc2)c2ccccc2)cc1`: the absorption maximum (in C1CCOC1) is 512 nm; the absorption maximum (in CCOC(C)=O) came out at 502 nm; the absorption maximum (in CN(C)C=O) was 513 nm; the absorption maximum (in Cc1ccccc1) turned out to be 521 nm; the absorption maximum (in ClC(Cl)Cl) was 514 nm; the absorption maximum (in ClCCl) is recorded as 512 nm.
On to `COc1ccc(/C=C/c2ccccc2)cc1`, for which the absorption maximum (in CC#N) was found to be 317 nm.
With `CCN(CC)c1ccc2c(c1)oc(=O)c1c(=O)oc3cc(Br)ccc3c12`, the absorption maximum is on record as 469 nm (in CS(C)=O) and 466 nm (in ClCCl).
With `FC(F)(F)C(F)(F)C(F)(F)C(F)(F)C(F)(F)C(F)(F)C(F)(F)C(F)(F)CCOc1nnc(Cl)nn1`, the absorption maximum came to 519 nm (in ClCCl) and 509 nm (in OCC(F)(F)F).
`Cc1cc(C)c([B-]2(c3c(C)cc(C)cc3C)[O+]=P(c3ccccc3)(c3ccccc3)c3cc(C#Cc4ccccc4)sc3-c3sc(C#Cc4ccccc4)cc32)c(C)c1` showed an absorption maximum (in C1CCOC1) of 417 nm.
For the setting “in Cc1ccccc1”, `c1ccc(N(c2ccccc2)c2c3ccccc3cc3ccccc23)cc1` had an absorption maximum of 428 nm.
Regarding `CCCCCCOc1cc(/C=C2\C(=O)c3ccccc3C2=C(C#N)C#N)c(OCCCCCC)cc1/C=C1\C(=O)c2ccccc2C1=C(C#N)C#N`, the absorption maximum (in ClCCl) came out at 548 nm.
As for `CCOc1ccc2c(-c3nc(-c4ccccc4Cl)no3)cc(=O)oc2c1`, the absorption maximum (in CCO) was determined as 393 nm and the absorption maximum (in ClC(Cl)Cl) is 394 nm.
Turning to `COc1ccc2c(C=C(C#N)C#N)cc3ccc4cc(C=C(C#N)C#N)c5ccc(OC)cc5c4c3c2c1`, the absorption maximum (in ClC(Cl)Cl) is reported as 456 nm.
In the case of `c1ccc2c3c(ccc2c1)-c1cccc2cc4ccccc4c-3c12`, the absorption maximum (in CCCCCCC) is listed as 446 nm.
`Cc1ccc2cc3c(=O)n(C)c(=O)n(C)c3nc2c1` came in with an absorption maximum (in CC#N) of 353 nm; an absorption maximum (in CC(C)O) of 353 nm; an absorption maximum (in CCO) of 353 nm; an absorption maximum (in CO) of 352 nm; an absorption maximum (in ClC(Cl)Cl) of 355 nm; an absorption maximum (in ClCCl) of 355 nm.
In turn, `CC(C)(C)NC(=O)c1ccc(C(=O)NC(C)(C)C)c2c1c1c3ccccc3c3ccccc3c1c1c3ccccc3c3ccccc3c21` yielded an absorption maximum (in ClCCl) of 388 nm.
For `CCN1CCN(c2ccc(/N=N/c3ccc(C#N)cc3)cc2)CC1`, the absorption maximum (in CCOC(C)=O) stood at 428 nm.
Take `COc1ccc2c(c1)C(=O)c1ccccc1-2`: the absorption maximum by setting is: (in C1CCCCC1) 421 nm; (in CC#N) 432 nm; (in CCO) 433 nm.
`c1ccc(N(c2ccccc2)c2ccc(-c3ccc4c(c3)C3(c5cc(-c6ccc(N(c7ccccc7)c7ccccc7)cc6)ccc5S4)c4ccccc4-c4ccccc43)cc2)cc1`: under “in ClCCl”, the absorption maximum was 356 nm.
In turn, `CC[n+]1c(-c2ccccc2)c2cc(N)ccc2c2ccc(NC(N)=O)cc21` displayed an absorption maximum (in O) of 458 nm.
`CN(C)c1ccc(/C=C/c2cc[n+](CCCCC[n+]3ccc(/C=C/c4ccc(N(C)C)cc4)cc3)cc2)cc1` showed an absorption maximum (in CC1COC(=O)O1) of 478 nm; an absorption maximum (in CC#N) of 478 nm; an absorption maximum (in CC(C)=O) of 476 nm; an absorption maximum (in CC(C)O) of 486 nm; an absorption maximum (in CCO) of 492 nm; an absorption maximum (in CN(C)C=O) of 478 nm. Besides, the absorption maximum is, setting by setting: (in CO) 484 nm; (in CS(C)=O) 479 nm; (in ClC(Cl)Cl) 494 nm; (in O) 457 nm; (in c1ccncc1) 490 nm.
On to `CC(C)=CC(=O)c1cc2c(cc1F)NC(C)(C)CC2=O`, for which the absorption maximum (in CC#N) is recorded as 356 nm.
On to `COCCC1=Cc2nc1ccc1[nH]c(cc1CCOC)c1nc(c(OC(C)=O)cc3[nH]c2cc3CCOC)C(CCOC)=C1`, for which, where the note is “in Cc1ccccc1”, the absorption maximum amounted to 647 nm.
As to `CCCCN1C(=S)c2cccc3cccc(c23)C1=S`, the absorption maximum turned out to be 437 nm (in CC#N), 443 nm (in CS(C)=O) and 442 nm (in Cc1ccccc1).
